Values after ≈ are worked out from the molar mass of the structure shown.
What was measured:
Format in all cases: cell-based
[1] = system: Penicillinresistant S. aureus (5 strains); assay: MIC, two-fold serial agar dilution, group (G+)-Ib; conditions: Staphylococcus aureus, read-out: Geometric Mean of MIC (G+)-Ib (5)
Experimental: (§1) In the primary evaluation of the compounds of this invention, the Minimum Inhibitory Concentrations (MIC's) of the compounds and two reference compounds (cefotaxime and ceftazidime) were determined by the two-fold serial agar dilution method in Mueller-Hinton agar against 32 strains of test organisms in six groups.
(G+)Ib: Penicillinresistant S. aureus (5 strains)

[2] = system: Cephalothinsensitive E. coli (2 strains), Kl. pneumoniae (1 strain) and Pr. mirabilis (2 strains); assay: MIC, two-fold serial agar dilution, group (G-)-Ia; conditions: Mueller-Hinton agar; cephalothin-sensitive; read-out: Geometric Mean of MIC (G-)-Ia (5)
Experimental: as §1, with “The preferred compounds of Formula I are those in which R^1 is hydrogen and R^2 is methyl or ethyl. In the most preferred compound, R^2 is methyl. In the” for “In the”
(G-)Ia: Cephalothinsensitive E. coli (2 strains), Kl. pneumoniae (1
strain) and Pr. mirabilis (2 strains)

[3] = system: Penicillinsensitive S. aureus (5 strains); assay: MIC, two-fold serial agar dilution, group (G+)-Ia; conditions: Staphylococcus aureus; Mueller-Hinton agar; penicillin-sensitive S. aureus; read-out: Geometric Mean of MIC (G+)-Ia (5 strains)
Experimental: as §1

[4] = system: Cephalothinresistant E. coli (3 strains) and Kl. pneumoniae (3 strains); assay: MIC, two-fold serial agar dilution, group (G-)-Ib; conditions: Escherichia coli, read-out: Geometric Mean of MIC (G-)-Ib (6)
Experimental: as §1

[5] = system: Ps. aeruginosa (6 strains); assay: MIC, two-fold serial agar dilution, group (G-)-III; conditions: Pseudomonas aeruginosa; Mueller-Hinton agar; Ps. aeruginosa; read-out: Geometric Mean of MIC (G-)-III (6)
Experimental: as §1

[6] = system: Pr. morganii (1 strain), Ent. cloacae (2 strains) and Ser. marcescens (2 strains); assay: MIC, two-fold serial agar dilution, group (G-)-II; conditions: Mueller-Hinton agar; read-out: Geometric Mean of MIC (G-)-II (5)
Experimental: as §1

SMILES	MIC [1] [µg/mL]	MIC [2] [µg/mL]	MIC [3] [µg/mL]	MIC [4] [µg/mL]	MIC [5] [µg/mL]	MIC [6] [µg/mL]
CC(C)O/N=C(\C(=O)NC1C(=O)N2C(C(=O)[O-])=C(C[N+]3(C)CCCC3)CSC12)c1csc(N)n1 (stereo not drawn) [Compound Ic, 7-[(Z)-2-(2-Propoxyimino)-2-(2-aminothiazol-4-yl)acetamido]-3-[(1-methyl-1-pyrrolidinium)methyl]-3-cephem-4-carboxylate]	3.6 (≈ 7.08 µM)	0.35 (≈ 0.688 µM)	1.4 (≈ 2.75 µM)	1.3 (≈ 2.56 µM)	11 (≈ 21.6 µM)	3.2 (≈ 6.29 µM)
CCO/N=C(\C(=O)NC1C(=O)N2C(C(=O)[O-])=C(C[N+]3(C)CCCC3)CSC12)c1csc(N)n1 (stereo not drawn) [Ib, 7-[(Z)-2-Ethoxyimino-2-(2-aminothiazol-4-yl)acetamido]-3-[(1-methyl-1-pyrrolidinium)methyl]-3-cephem-4-carboxylate]	3.1 (≈ 6.27 µM)	0.087 (≈ 0.176 µM)	1.4 (≈ 2.83 µM)	0.32 (≈ 0.647 µM)	5.6 (≈ 11.3 µM)	1 (≈ 2.02 µM)
C=CCO/N=C(\C(=O)NC1C(=O)N2C(C(=O)[O-])=C(C[N+]3(C)CCCC3)CSC12)c1csc(N)n1 (stereo not drawn) [Id, 7-[(Z)-2-Allyloxyimino-2-(2-aminothiazol-4-yl)acetamido]-3-[(1-methyl-1-pyrrolidinium)methyl]-3-cephem-4-carboxylate]	3.6 (≈ 7.11 µM)	0.53 (≈ 1.05 µM)	1.8 (≈ 3.55 µM)	1.1 (≈ 2.17 µM)	13 (≈ 25.7 µM)	2.4 (≈ 4.74 µM)

— patent US4406899A, “Cephalosporins” (Bristol-Myers Company, priority 1982, dated 1983)
